Measurements published in patent US7741338B2, “Macrolides” (Novartis AG, priority 1998, dated 2010).

Legend:
[1] = storage stability, sum of by-products and degradation products after 1 week storage; assay type: physicochemical; details: 50° C. in open flask
Source text: The sum of by-products and degradation products in % after 1 week storage are as follows: […]

[2] = in vitro and in vivo immunosuppressive activity; details: crystalline form compared with amorphous form
Experimental: (§1) In the localized GvHD, maximal inhibition (70-80%) of lymph node swelling is achieved with a dosage of 3 mg with 40-O-(2-hydroxy)ethyl-rapamycin in crystalline form.

[3] = test system: localized GvHD; assay: localized GvHD, inhibition of lymph node swelling; assay type: in vivo; details: dosage of 3 mg
Experimental: as §1

| SMILES | sum of by-products and degradation products [1] | in vitro and in vivo immunosuppressive activity [2] | maximal inhibition of lymph node swelling [3] |
| --- | --- | --- | --- |
| CO[C@H]1C[C@@H]2CC[C@@H](C)[C@@](O)(O2)C(=O)C(=O)N2CCCC[C@H]2C(=O)O[C@H]([C@H](C)C[C@@H]2CC[C@@H](OCCO)[C@H](OC)C2)CC(=O)[C@H](C)/C=C(\C)[C@@H](O)[C@@H](OC)C(=O)[C@H](C)C[C@H](C)/C=C/C=C/C=C/1C [Without BHT, 40-O-(2-hydroxy)ethyl-rapamycin] | >10% |  |  |
| CO[C@H]1C[C@@H]2CC[C@@H](C)[C@@](O)(O2)C(=O)C(=O)N2CCCC[C@H]2C(=O)O[C@H]([C@H](C)C[C@@H]2CC[C@@H](OCCO)[C@H](OC)C2)CC(=O)[C@H](C)/C=C(\C)[C@@H](O)[C@@H](OC)C(=O)[C@H](C)C[C@H](C)/C=C/C=C/C=C/1C [40-O-(2-hydroxy)ethyl-rapamycin] |  | comparable to that of the amorphous form | 70-80% |
